In US20070249590A1, “Substituted indolo[2,3-a]pyrrolo[3,4-c]carbazole compounds useful in treating kinase disorders” (priority 2005, published 2007) one finds IC50 data, which are given here for 25 compounds.

A value given as a limit tells only on which side of the number the result lay.

The assay has as its target T1, JAK3 (JH1 and JH2 domain) (Homo sapiens, UniProt P52333).
T1 sequence (P52333 521-1111 limits assumed): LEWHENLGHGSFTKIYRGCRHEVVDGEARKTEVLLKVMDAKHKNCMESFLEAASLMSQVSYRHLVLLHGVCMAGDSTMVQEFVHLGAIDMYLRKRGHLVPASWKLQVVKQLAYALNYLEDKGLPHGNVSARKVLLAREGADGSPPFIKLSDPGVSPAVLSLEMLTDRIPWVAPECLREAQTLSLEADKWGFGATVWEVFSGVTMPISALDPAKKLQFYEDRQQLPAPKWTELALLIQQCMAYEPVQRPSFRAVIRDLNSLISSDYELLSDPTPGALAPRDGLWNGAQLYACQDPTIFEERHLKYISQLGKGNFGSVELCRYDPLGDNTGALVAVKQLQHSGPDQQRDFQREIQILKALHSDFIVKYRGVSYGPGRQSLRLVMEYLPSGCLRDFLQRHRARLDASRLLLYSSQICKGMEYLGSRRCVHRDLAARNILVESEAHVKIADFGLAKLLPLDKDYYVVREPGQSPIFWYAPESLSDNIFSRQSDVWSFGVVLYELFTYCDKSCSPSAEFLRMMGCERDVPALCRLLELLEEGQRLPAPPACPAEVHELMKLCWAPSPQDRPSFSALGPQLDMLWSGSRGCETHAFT
Description: JAK3 Kinase Assay (ELISA of peptide substrate phosphorylation). Type of assay: biochemical. The following applies: purified JAK3 enzyme, 10 μM ATP, biotinylated peptide substrate, 1 hour at room temperature. A digest of the protocol:
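Sf21-baculovirus-expressed JAK3 (JH1+JH2), glutathione-bead purified, with biotinylated peptide substrate (in buffer containing 10 μM ATP) in HEPES pH 7.5/MgCl2/DTT, 1 h RT. Product was captured on Neutravidin, detected with HRP anti-phosphotyrosine (PY99)/TMB, OD 450/650 nm. Triplicate 16-point half-log series from 200 μM gave IC50; otherwise % inhibition at 1 μM.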
(In general: ELISA stands for enzyme-linked immunosorbent assay.)
For the compound `O=C1NC(=O)c2c1c1c3ccccc3n3c1c1c2c2ccccc2n1CC(OC(=O)N1CCN(c2ccccn2)CC1)C(O)C3` (stereo not shown) [Cpd 112, 12,13-{2-[(4-pyridin-2-yl-piperazin-1-yl)carbonyloxy]-3-hydroxy-butan-1,4-yl}-12,13-dihydro-5,7-dioxo-6H-indolo[2,3-a]pyrrolo[3,4-c]carbazole], the IC50 came out at 1080 nM.
Then `CN(C)[C@H]1CCN(C(=O)OC2CCn3c4ccccc4c4c5c(c6c7ccccc7n(c6c43)C2)C(=O)NC5=O)C1` (stereo partly drawn) [Cpd 73, 12,13-(2-{[(3S)-3-dimethylamino-pyrrolidin-1-yl]carbonyloxy}-butan-1,4-yl)-12,13-dihydro-5,7-dioxo-6H-indolo[2,3-a]pyrrolo[3,4-c]carbazole], with 42 nM; and `CC(C)(C)OC(=O)N1CCC(NC(=O)OCC2(O)Cn3c4ccccc4c4c5c(c6c7ccccc7n(c6c43)C2)C(=O)NC5)CC1` (stereo not shown) [Cpd 177, 12,13-{2-hydroxy-2-[(1-t-butoxycarbonyl-piperidin-4-yl)carbamoyloxymethyl]-propan-1,3-yl}-6,7,12,13-tetrahydro-5-oxo-5H-indolo[2,3-a]pyrrolo[3,4-c]carbazole], with 143 nM; and `CN(C)CCCN(CCCN(C)C)C(=O)OC1Cn2c3ccccc3c3c4c(c5c6ccccc6n(c5c32)CC1O)C(=O)NC4=O` (stereo not shown) [Cpd 109, 12,13-(2-{[N,N-bis-(3-dimethylamino-prop-1-yl)]carbamoyloxy}-3-hydroxy-butan-1,4-yl)-12,13-dihydro-5,7-dioxo-6H-indolo[2,3-a]pyrrolo[3,4-c]carbazole], with more than 200 nM.
`CC(C)OCc1ccc2c(c1)c1c3c(c4c5ccccc5n5c4c1n2CC(CO)C5)CNC3=O` (stereo not shown) [Cpd 211, 9-(isopropoxymethyl)-12,13-(2-hydroxymethyl-propan-1,3-yl)-6,7,12,13-tetrahydro-5-oxo-5H-indolo[2,3-a]pyrrolo[3,4-c]carbazole]: the IC50 came out at 107 nM.
Then `O=C(NCCc1ccccn1)OCC1Cn2c3ccccc3c3c4c(c5c6ccccc6n(c5c32)C1)C(=O)NC4` (stereo not shown) [Cpd 160, 12,13-{2-[(2-pyridin-2-yl-ethyl)carbamoyloxymethyl]-propan-1,3-yl}-6,7,12,13-tetrahydro-5-oxo-5H-indolo[2,3-a]pyrrolo[3,4-c]carbazole], with more than 200 nM.
The same measure for `CN(C)CCSCc1ccc2c(c1)c1c3c(c4c5ccccc5n5c4c1n2CC(O)C(O)C5)CNC3=O` (stereo not shown) [Cpd 199, 3-[(2-dimethylamino-ethyl)thiomethyl]-12,13-(2,3-dihydroxy-butan-1,4-yl)-6,7,12,13-tetrahydro-5-oxo-5H-indolo[2,3-a]pyrrolo[3,4-c]carbazole]: 309 nM.
The same measure for `COCCNC(=O)OCC1(O)Cn2c3ccccc3c3c4c(c5c6ccccc6n(c5c32)C1)C(=O)NC4` (stereo not shown) [Cpd 136, 12,13-{2-hydroxy-2-[(2-methoxy-ethyl)carbamoyloxymethyl]-propan-1,3-yl}-6,7,12,13-tetrahydro-5-oxo-5H-indolo[2,3-a]pyrrolo[3,4-c]carbazole]: 123 nM.
In the case of `COc1ccc(CCNC(=O)OC2Cn3c4ccccc4c4c5c(c6c7ccccc7n(c6c43)CC2O)C(=O)NC5=O)cc1OC` (stereo not shown) [Cpd 84, 12,13-(2-{[2-(3,4-dimethoxy-phenyl)ethyl]carbamoyloxy}-3-hydroxy-butan-1,4-yl)-12,13-dihydro-5,7-dioxo-6H-indolo[2,3-a]pyrrolo[3,4-c]carbazole], the IC50 amounted to 187 nM.
Turning to `COC[C@H](C)NC(=O)OC1CCn2c3ccccc3c3c4c(c5c6ccccc6n(c5c32)CC1)C(=O)NC4` (stereo partly drawn) [Cpd 182, 12,13-[3-({2-[(1S)-2-methoxy-1-methyl]ethyl}carbamoyloxy)-pentan-1,5-yl]-6,7,12,13-tetrahydro-5-oxo-5H-indolo[2,3-a]pyrrolo[3,4-c]carbazole], the IC50 amounted to 1670 nM.
Then `CC(C)NC(=O)OC1Cn2c3ccccc3c3c4c(c5c6ccccc6n(c5c32)CC1O)C(=O)NC4=O` (stereo not shown) [Cpd 85, 12,13-[2-(prop-2-yl-carbamoyloxy)-3-hydroxy-butan-1,4-yl]-12,13-dihydro-5,7-dioxo-6H-indolo[2,3-a]pyrrolo[3,4-c]carbazole], with 14 nM.
The same measure for `O=C1NC(=O)c2c1c1c3ccccc3n3c1c1c2c2ccccc2n1CC(OC(=O)N1CCN(C(=O)CN2CCCC2)CC1)C(O)C3` (stereo not shown) [Cpd 95, 12,13-[2-({4-[(pyrrolidin-1-yl-methyl)carbonyl]piperazin-1-yl}carbonyloxy)-3-hydroxy-butan-1,4-yl]-12,13-dihydro-5,7-dioxo-6H-indolo[2,3-a]pyrrolo[3,4-c]carbazole]: 159 nM; for `O=C1NC(=O)c2c1c1c3ccccc3n3c1c1c2c2ccccc2n1CC(O)CC3` (stereo not shown) [Cpd 7, 12,13-(2-hydroxy-butan-1,4-yl)-12,13-dihydro-5,7-dioxo-6H-indolo[2,3-a]pyrrolo[3,4-c]carbazole]: 5 nM; for `C=C1Cn2c3ccccc3c3c4c(c5c6ccccc6n(c5c32)C1)C(=O)NC4` [Cpd 22, 12,13-(2-methylene-propan-1,3-yl)-6,7,12,13-tetrahydro-5-oxo-5H-indolo[2,3-a]pyrrolo[3,4-c]carbazole]: 72 nM.
Then `COc1ccc2[nH]cc(CCNC(=O)OC3Cn4c5ccccc5c5c6c(c7c8ccccc8n(c7c54)CC3O)C(=O)NC6=O)c2c1` (stereo not shown) [Cpd 87, 12,13-(2-{[2-(5-methoxy-1H-indol-3-yl)ethyl]carbamoyloxy}-3-hydroxy-butan-1,4-yl)-12,13-dihydro-5,7-dioxo-6H-indolo[2,3-a]pyrrolo[3,4-c]carbazole], with 169 nM; and `CN(C)CCN(Cc1ccccc1)C(=O)OC1Cn2c3ccccc3c3c4c(c5c6ccccc6n(c5c32)CC1O)C(=O)NC4=O` (stereo not shown) [Cpd 69, 12,13-(2-{[N-benzyl-N-(2-dimethylamino-ethyl)]carbamoyloxy}-3-hydroxy-butan-1,4-yl)-12,13-dihydro-5,7-dioxo-6H-indolo[2,3-a]pyrrolo[3,4-c]carbazole], with 55 nM.
For `O=C(NC1CCNCC1)OC1CCn2c3ccccc3c3c4c(c5c6ccccc6n(c5c32)C1)C(=O)NC4=O` (stereo not shown) [Cpd 75, 12,13-[2-(piperidin-4-yl-carbamoyloxy)-butan-1,4-yl]-12,13-dihydro-5,7-dioxo-6H-indolo[2,3-a]pyrrolo[3,4-c]carbazole], the half-inhibitory concentration (IC50) is 35 nM.
The same measure for `O=C1NCc2c1c1c3ccccc3n3c1c1c2c2ccccc2n1CC(O)(COC(=O)N1CCN(c2ccc(O)cc2)CC1)C3` (stereo not shown) [Cpd 137, 12,13-(2-hydroxy-2-{[4-(4-hydroxy-phenyl)piperazin-1-yl]carbonyloxymethyl}-propan-1,3-yl)-6,7,12,13-tetrahydro-5-oxo-5H-indolo[2,3-a]pyrrolo[3,4-c]carbazole]: 175 nM; for `COCCNC(=O)OC1Cn2c3ccccc3c3c4c(c5c6ccccc6n(c5c32)CC1O)C(=O)NC4=O` (stereo not shown) [Cpd 83, 12,13-{2-[(2-methoxy-ethyl)carbamoyloxy]-3-hydroxy-butan-1,4-yl}-12,13-dihydro-5,7-dioxo-6H-indolo[2,3-a]pyrrolo[3,4-c]carbazole]: 29 nM; for `CN1CCN(CCCNC(=O)OCC2(O)Cn3c4ccccc4c4c5c(c6c7ccccc7n(c6c43)C2)C(=O)NC5)CC1` (stereo not shown) [Cpd 151, 12,13-(2-hydroxy-2-{[3-(4-methyl-piperazin-1-yl)prop-1-yl]carbamoyloxymethyl}-propan-1,3-yl)-6,7,12,13-tetrahydro-5-oxo-5H-indolo[2,3-a]pyrrolo[3,4-c]carbazole]: 23 nM.
As for `O=C1NCc2c1c1c3ccccc3n3c1c1c2c2ccccc2n1CC(O)(COC(=O)N1CCN(C2CCCCC2)CC1)C3` (stereo not shown) [Cpd 142, 12,13-{2-hydroxy-2-[(4-cyclohexyl-piperazin-1-yl)carbonyloxymethyl]-propan-1,3-yl}-6,7,12,13-tetrahydro-5-oxo-5H-indolo[2,3-a]pyrrolo[3,4-c]carbazole], the IC50 is more than 200 nM.
The same measure for `O=C1NCc2c1c1c3cc(NC4=NCCN4)ccc3n3c1c1c2c2ccccc2n1CC(O)C(O)C3` (stereo not shown) [Cpd 206]: 49 nM.
For `COCCNC(=O)OC1CCn2c3ccccc3c3c4c(c5c6ccccc6n(c5c32)CC1)C(=O)NC4` (stereo not shown) [Cpd 179, 12,13-{3-[(2-methoxy-ethyl)carbamoyloxy]-pentan-1,5-yl}-6,7,12,13-tetrahydro-5-oxo-5H-indolo[2,3-a]pyrrolo[3,4-c]carbazole], the concentration for half-maximal inhibition (IC50) came to 1060 nM.
The same measure for `O=C1NC(=O)c2c1c1c3ccccc3n3c1c1c2c2ccccc2n1CC(O)(C(=O)N1CCC(O)CC1)C(O)C3` (stereo not shown) [Cpd 132, 12,13-{2-[(4-hydroxy-piperidin-1-yl)carbonyl]-2,3-dihydroxy-butan-1,4-yl}-12,13-dihydro-5,7-dioxo-6H-indolo[2,3-a]pyrrolo[3,4-c]carbazole]: 28 nM.
Take `O=C1NC(=O)c2c1c1c3ccccc3n3c1c1c2c2ccccc2n1CC(O)(C(=O)N1CCN(c2ccc(O)cc2)CC1)C(O)C3` (stereo not shown) [Cpd 129, 12,13-(2-{[4-(4-hydroxy-phenyl)piperazin-1-yl]carbonyl}-2,3-dihydroxy-butan-1,4-yl)-12,13-dihydro-5,7-dioxo-6H-indolo[2,3-a]pyrrolo[3,4-c]carbazole]: the IC50 worked out at 67 nM.

In general, IC50 refers to the concentration that gives 50% inhibition.
